# Literature values in patent US8263638B2, “Dosing regimens for ion channel modulating compounds” (priority 2004, dated 2012).
# Like-named read-outs stand apart in the source and are kept apart here.
# Test system: rabbit Purkinje fibers
# Conditions: cited from earlier work
structure (smiles),measurement,setting,value
CN(CCOc1ccc(NS(C)(=O)=O)cc1)CCc1ccc(NS(C)(=O)=O)cc1 [dofetilide],increase of APD90,"10 nM, rabbit Purkinje fibers, BCL=1000 ms",83%
C=C[C@H]1C[N@@]2CC[C@H]1C[C@@H]2[C@@H](O)c1ccnc2ccc(OC)cc12 [quinidine],increase of APD90,"10 μM, rabbit",93%
